Experimental data from patent US11957684B2, “Treatment of heavy menstrual bleeding associated with uterine fibroids” (Sumitomo Pharma Switzerland GmbH, priority 2016, dated 2024).
Several values for one entry are separate records, joined by “and”; a condition that tells them apart may be missing. Equal values may be shown once. Read-outs that look alike come from different tables or passages of the source.

Assays:
[1] = tested on: endometriosis-associated pain; type: in vivo, human
Protocol: Subjects assessed and recorded their own quality of life (QOL) using the EHP-30 once a month during the study visit. As used in the examples, the VAS score was evaluated using a 100 mm scale. For pain intensity, the scale was anchored by “no pain” (score of 0) and “pain as bad as you can imagine” (score of 100). […] The above items were evaluated using a patient diary that was distributed by the sponsor. Subjects filled out the patient diary every day during the treatment period or until early termination. If taking prohibited analgesics, subjects recorded this fact in the patient diary along with the accompanying pain symptoms before use of analgesics. As used in the examples, pain during menstruation and pelvic pain unrelated to menstruation were evaluated using scores on the M-B&B and B&B. The M-B&B scores were recorded by subjects on the patient diary supplied by the sponsor. Subjects filled out the patient diary every day during the treatment period or until early termination. If taking prohibited analgesics, subjects recorded this fact in the patient diary along with the accompanying pain symptoms before use of analgesics. The investigator or subinvestigator assessed each patient's pain through interviews and filled out a B&B once a month. The items that were assessed are shown below. The M-B&B score included: dysmenorrhea (severe, moderate, mild, no pain, or no menstruation); pelvic pain (severe, moderate, mild, or no pain); deep dyspareunia (severe, moderate, mild, no pain, or no intercourse). The B&B score included: dysmenorrhea (severe, moderate, mild, none, or not applicable); dyspareunia (severe, moderate, mild, none, or not applicable); pelvic pain (severe, moderate, mild, or none); pelvic tenderness (severe, moderate, mild, or none); and induration (severe, moderate, mild, or none). As used in the examples, the EHP-30 score was obtained by subjects assessing and recording their own QOL using the EHP-30 questionnaire.

[2] = tested on: LH, FSH, estradiol (E2), progesterone (P), CA125; experiment: Example 8A: serum LH, FSH, E2, P and CA125; type: in vivo, human; details: for median change in serum E2 from baseline / median change in serum FSH from baseline / median change in serum LH from baseline / median change in serum progesterone (P) from baseline / subjects with CA125 less than or equal to 35 U/mL: Week 24
Excerpt: Study participants were premenopausal (≥20 years) Japanese women with endometriosis (EM)-associated pain who completed a preceding 12-week study and were eligible to continue for an additional 12-week treatment were enrolled. The participants has confirmed normal regular menstrual cycles (25 to 38 days per cycle) and diagnosed to have EM and EM-related dysmenorrhea and pelvic pain of at least moderate severity as determined by the physician B&B scale. The primary endpoint was the safety including assessment of change in bone mineral density (BMD) using dual energy x-ray absorptiometry, adverse events, vital signs, weight, 12-lead electrocardiograms, and clinical laboratory tests. […] Baseline characteristics were similar between randomized patients and all patients who entered the extension study.

[3] = 40 mg, end of 84 consecutive days

CONC(=O)Nc1ccc(-c2sc3c(c2CN(C)C)c(=O)n(-c2ccc(OC)nn2)c(=O)n3Cc2c(F)cccc2F)cc1 [Compound 1, N-(4-(1-(2,6-difluorobenzyl)-5-((dimethylamino)methyl)-3-(6-methoxy-3-pyridazinyl)-2,4-dioxo-1,2,3,4-tetrahydrothieno[2,3-d]pyrimidin-6-yl)phenyl)-N′-methoxyurea]
change in proportion of days without pain (M-B&B), dysmenorrhea ([1]; 20 mg, end of treatment): 50.92±41.641%
change in proportion of days without pain (M-B&B), pelvic pain ([1]; 20 mg, end of treatment): 17.75±30.339%
change in proportion of days without pain (VAS), dysmenorrhea ([1]; 20 mg, end of treatment): 50.91±42.602%
change in proportion of days without pain (VAS), dyspareunia ([1]; 20 mg, end of treatment): 15.14±47.793%
change in proportion of days without pain (VAS), pelvic pain ([1]; 20 mg, end of treatment): 21.50±28.859%
mean VAS score, dysmenorrhea ([1]; 20 mg, end of treatment): 7.878±14.2406 mm
mean VAS score, dyspareunia ([1]; 20 mg, end of treatment): 6.363±13.1847 mm
mean VAS score, pelvic pain ([1]; 20 mg, end of treatment): 6.557±11.2902 mm
subjects who achieved amenorrhea ([1]; 20 mg, end of treatment): 54.0%
subjects without pain in M-B&B score, dysmenorrhea ([1]; 20 mg, end of treatment): 61.0%
subjects without pain in M-B&B score, dyspareunia ([1]; 20 mg, end of treatment): 52.5%
subjects without pain in M-B&B score, pelvic pain ([1]; 20 mg, end of treatment): 34.0%
subjects without pain in VAS score, dysmenorrhea ([1]; 20 mg, end of treatment): 59.0%
subjects without pain in VAS score, dyspareunia ([1]; 20 mg, end of treatment): 47.5%
subjects without pain in VAS score, pelvic pain ([1]; 20 mg, end of treatment): 20%
change from baseline in pelvic pain, dysmenorrhea, and dyspareunia in mean VAS ([1]; 40 mg, 84 consecutive days): −10.418±11.0171 mm
change from baseline in mean VAS, dysmenorrhea ([1]; 40 mg, Day 1-28): −10.979±14.8545 mm
change from baseline in mean VAS, dyspareunia ([1]; 40 mg, Day 1-28): 2.995±9.7916 mm
change from baseline in mean VAS, pelvic pain ([1]; 40 mg, Day 1-28): −3.761±7.8831 mm
mean VAS score, dysmenorrhea ([1]; 40 mg, Day 1-28): 19.452±19.1065 mm
mean VAS score, dyspareunia ([1]; 40 mg, Day 1-28): 9.522±13.6408 mm
mean VAS score, pelvic pain ([1]; 40 mg, Day 1-28): 11.498±13.2341 mm
change from baseline in mean VAS, dysmenorrhea ([1]; 40 mg, Day 57-84): −30.094±17.2623 mm
change from baseline in mean VAS, dyspareunia ([1]; 40 mg, Day 57-84): −1.860±10.3161 mm
change from baseline in mean VAS, pelvic pain ([1]; 40 mg, Day 57-84): −10.537±11.0516 mm
mean VAS score, dysmenorrhea ([1]; 40 mg, Day 57-84): 0.569±2.5367 mm
mean VAS score, dyspareunia ([1]; 40 mg, Day 57-84): 4.126±7.9652 mm
mean VAS score, pelvic pain ([1]; 40 mg, Day 57-84): 4.785±8.9162 mm
change from baseline in mean VAS, dysmenorrhea ([1]; 40 mg, Day 141-168): −31.210±17.7668 mm
change from baseline in mean VAS, dyspareunia ([1]; 40 mg, Day 141-168): −0.830±13.6774 mm
mean VAS score, dysmenorrhea ([1]; 40 mg, Day 141-168): 0.430±2.3141 mm
mean VAS score, dyspareunia ([1]; 40 mg, Day 141-168): 3.531±9.6053 mm
mean VAS score, pelvic pain ([1]; 40 mg, Day 141-168): 2.979±6.1704 mm
change from baseline in EHP-30, Self-image ([1]; 40 mg, Week 24): −9.68±17.744
change from baseline in EHP-30, control & powerlessness ([1]; 40 mg, Week 24): −20.88±21.676
change from baseline in EHP-30, emotional well-being ([1]; 40 mg, Week 24): −13.26±16.316
change from baseline in EHP-30, pain ([1]; 40 mg, Week 24): −25.94±19.902
change from baseline in EHP-30, social support ([1]; 40 mg, Week 24): −10.28±17.109
change from baseline in mean B&B score, dysmenorrhea ([1]; 40 mg, Week 24): −2.0±0.61
change from baseline in mean B&B score, dyspareunia ([1]; 40 mg, Week 24): −0.1±0.43
change from baseline in mean B&B score, pelvic pain ([1]; 40 mg, Week 24): −1.0±0.86
change from baseline in mean B&B score, pelvic tenderness ([1]; 40 mg, Week 24): −1.0±0.92
subjects without pain in B&B score, dysmenorrhea ([1]; 40 mg, Week 24): 94.3%
subjects without pain in B&B score, pelvic pain ([1]; 40 mg, Week 24): 58.6%
change from baseline in proportion of days without dysmenorrhea (M-B&B) ([1]; 40 mg, end of 28 consecutive days): 73.98±29.567%
change from baseline in mean EHP-30 score [1, 3]: −25.94±19.902
change from baseline in mean M-B&B score, deep dyspareunia [1, 3]: −0.097±0.4325
change from baseline in mean M-B&B score, dysmenorrhea [1, 3]: −1.144±0.5014
change from baseline in mean M-B&B score, pelvic pain [1, 3]: −0.400±0.4491
change from baseline in proportion of days without deep dyspareunia (M-B&B) [1, 3]: 8.15±43.20%
change from baseline in proportion of days without dysmenorrhea (VAS) [1, 3]: 78.45±29.838%
change from baseline in proportion of days without pelvic pain (M-B&B) [1, 3]: 31.00±36.746%
change from baseline in proportion of days without pelvic pain (VAS) [1, 3]: 36.59±34.849%
subjects without dysmenorrhea (B&B) [1, 3]: 94.3%
subjects without dyspareunia (M-B&B) [1, 3]: 51.3%
change from baseline in maximum M-B&B score, dysmenorrhea ([1]; 40 mg, end of treatment): −2.0±0.76
change from baseline in maximum M-B&B score, dyspareunia ([1]; 40 mg, end of treatment): −0.1±0.54
change from baseline in maximum M-B&B score, pelvic pain ([1]; 40 mg, end of treatment): −1.0±0.89
change from baseline in maximum VAS, dysmenorrhea ([1]; 40 mg, end of treatment): −57.1±25.00 mm
change from baseline in maximum VAS, dyspareunia ([1]; 40 mg, end of treatment): −2.5±17.17 mm
change from baseline in maximum VAS, pelvic pain ([1]; 40 mg, end of treatment): −49.7±26.47 mm
change from baseline in mean M-B&B score, deep dyspareunia ([1]; 40 mg, end of treatment): −0.097±0.4325
change from baseline in mean M-B&B score, dysmenorrhea ([1]; 40 mg, end of treatment): −1.144±0.5014
change from baseline in mean M-B&B score, pelvic pain ([1]; 40 mg, end of treatment): −0.400±0.4491
change from baseline in mean VAS, dysmenorrhea ([1]; 40 mg, end of treatment): −29.513±17.5379 mm
change from baseline in mean VAS, dyspareunia ([1]; 40 mg, end of treatment): −0.925±12.0373 mm
change from baseline in mean VAS, pelvic pain ([1]; 40 mg, end of treatment): −11.924 mm and −11.924±11.2609 mm
change from baseline in mean score of amount of bleeding (0 to 5) ([1]; 40 mg, end of treatment): −2.207±0.8149
change from baseline in proportion of days with usage of pain killer ([1]; 40 mg, end of treatment): −9.95±14.214%
change in proportion of days without pain (M-B&B), deep dyspareunia ([1]; 40 mg, end of treatment): 8.15±43.207%
change in proportion of days without pain (M-B&B), dysmenorrhea ([1]; 40 mg, end of treatment): 73.98±29.567%
change in proportion of days without pain (M-B&B), pelvic pain ([1]; 40 mg, end of treatment): 31.00±36.746%
change in proportion of days without pain (VAS), dysmenorrhea ([1]; 40 mg, end of treatment): 78.45±29.838%
change in proportion of days without pain (VAS), dyspareunia ([1]; 40 mg, end of treatment): 4.50±40.796%
change in proportion of days without pain (VAS), pelvic pain ([1]; 40 mg, end of treatment): 36.59±34.849%
mean VAS score, dysmenorrhea ([1]; 40 mg, end of treatment): 0.918±4.3438 mm
mean VAS score, dyspareunia ([1]; 40 mg, end of treatment): 4.842±9.1145 mm
mean VAS score, pelvic pain ([1]; 40 mg, end of treatment): 3.335±6.4059 mm
subjects who achieved amenorrhea ([1]; 40 mg, end of treatment): 91.3%
subjects without pain in M-B&B score, dysmenorrhea ([1]; 40 mg, end of treatment): 93.2%
subjects without pain in M-B&B score, dyspareunia ([1]; 40 mg, end of treatment): 51.3%
subjects without pain in M-B&B score, pelvic pain ([1]; 40 mg, end of treatment): 52.4%
subjects without pain in VAS score, dysmenorrhea ([1]; 40 mg, end of treatment): 93.2%
subjects without pain in VAS score, dyspareunia ([1]; 40 mg, end of treatment): 48.7%
subjects without pain in VAS score, pelvic pain ([1]; 40 mg, end of treatment): 49.5% and 50%
median change in serum E2 from baseline ([2]; 10 mg): 1.0 pg/mL
median change in serum FSH from baseline ([2]; 10 mg): −0.630 mIU/mL
median change in serum LH from baseline ([2]; 10 mg): 0.300 mIU/mL
median change in serum progesterone (P) from baseline ([2]; 10 mg): 0.000 ng/mL
subjects with CA125 less than or equal to 35 U/mL ([2]; 10 mg): 75.3%
median change in serum E2 from baseline ([2]; 20 mg): -9.0 pg/mL
median change in serum FSH from baseline ([2]; 20 mg): −0.990 mIU/mL
median change in serum LH from baseline ([2]; 20 mg): −0.785 mIU/mL
median change in serum progesterone (P) from baseline ([2]; 20 mg): 0.005 ng/mL
subjects with CA125 less than or equal to 35 U/mL ([2]; 20 mg): 81.1%
median change in serum E2 from baseline ([2]; 40 mg): -39.0 pg/mL
median change in serum FSH from baseline ([2]; 40 mg): −3.550 mIU/mL
median change in serum LH from baseline ([2]; 40 mg): −2.480 mIU/mL
median change in serum progesterone (P) from baseline ([2]; 40 mg): -0.080 ng/mL
subjects with CA125 less than or equal to 35 U/mL ([2]; 40 mg): 88.5%
week at which median serum E2 decreased to LLQ ([2]; Compound 1 40 mg, leuprolide acetate 3.75 mg/4 wk): 2 Week
